Measurements as given in US9186381B2, “Medicament for liver regeneration and for treatment of liver failure” (Helmholtz Zentrum Fuer Infektionsforschung GmbH, priority 2011, dated 2015).

Columns and labels:
purified MKK4 protein = molecular target: T1, purified MKK4 protein (Homo sapiens, UniProt P45985); assay: in vitro MKK4 kinase assay, phosphorylation of substrate JNK1a1 with 32P-ATP; type: biochemical; conditions: for remaining activity at 50 µM: small inhibitory compound final concentration 50 μM, 32P-gATP approx. 10 μM, value is remaining activity, read-out: Inhibition, relative activity of MKK4 compared to control (without additional compound) (%)
T1 construct: made in house
T1 sequence (P45985 1-399): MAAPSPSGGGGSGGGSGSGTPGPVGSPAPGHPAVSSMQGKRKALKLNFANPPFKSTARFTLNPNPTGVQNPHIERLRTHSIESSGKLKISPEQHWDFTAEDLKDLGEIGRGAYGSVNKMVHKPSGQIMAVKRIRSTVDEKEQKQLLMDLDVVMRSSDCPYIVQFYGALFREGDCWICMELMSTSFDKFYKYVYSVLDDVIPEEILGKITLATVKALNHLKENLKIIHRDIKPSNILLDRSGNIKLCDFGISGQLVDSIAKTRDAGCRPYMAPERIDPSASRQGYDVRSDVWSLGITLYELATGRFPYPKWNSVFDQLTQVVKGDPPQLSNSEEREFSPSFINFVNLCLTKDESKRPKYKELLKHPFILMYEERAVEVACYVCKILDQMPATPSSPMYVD
Description: The inhibitory effect of compounds against MKK4 was analysed in an in vitro assay using purified MKK4 protein, e.g. obtained from a cell line that was genetically manipulated to over-express MKK4 from an expression cassette containing the nucleotide sequence SEQ ID NO: 1204 as a coding sequence and affinity purification using e.g. an antibody directed against MKK4 protein.
In the assay, purified active MKK4 protein was incubated with its substrate JNK1a1 and ^32P-labelled gATP (5 μCi, approx. 10 μM), without additional active compound, with the small inhibitory compound, or with Genistein as a positive control. For the assay, kinase assay buffer (20 mM HEPES pH 7.5; 10 mM MgCl2; 1 mg/ml BSA; 1 mM Na3VO4; 1 mM DTT) was used. An inhibitory effect of the small inhibitory compound (final concentration 50 μM) was detected as a reduction of the phosphorylation activity of MKK4 protein on its substrate JNK1a1 by measuring the amount of radioactive (^32P) phosphate in JNK1a1. Phosphorylation of JNK1a1 was measured in the presence of 2 ml scintillation cocktail per sample by using a scintillation counter (Wallac, Liquid Scintillation Counter). In this assay, Genistein gave an inhibition to approx. 80% activity compared to the assay without additional active compound.

MKK4 in the liver = assay: inhibition of MKK4 in vivo by small inhibitors administered to mice; conditions: dosage efficient for in vivo inactivation of MKK4
Description: In the alternative to inhibition of MKK4 activity in liver tissue by inhibitory RNA, SP600125, myricitine, Genistein, or PD98059 were used for inactivating MKK4 in the liver. Generally, SP600125, myricitine, Genistein, or PD98059 were administered to mice at a dosage efficient for in vivo inactivation of MKK4. Preferably, the dosage was efficient to inactivate at least 80%, more preferably at least 90 or 95% of mean in vivo MKK4 activity.

remaining activity at 50 µM (purified MKK4 protein) | SMILES | further results
66.2% | O=C(O)c1ccc2c3c(ncnc13)-c1ccccc1C2=O [BAS00368055, 7-oxobenzo[e]perimidine-4-carboxylic acid] | –
72.6% | Cn1c(O)c(C(=O)Nc2ccncc2)c(=O)c2ccccc21 [BAS00525963, 2-hydroxy-1-methyl-4-oxo-N-pyridin-4-ylquinoline-3-carboxamide] | –
79% | O=[N+]([O-])c1cccc(/C=N/c2ccc3[nH]ncc3c2)c1O [BAS00697444, 2-(1H-indazol-5-yliminomethyl)-6-nitrophenolate] | –
71.1% | COc1cc([N+](=O)[O-])cc(/C=N/c2ccc3[nH]ncc3c2)c1O [BAS00697462, 2-(1H-indazol-5-yliminomethyl)-6-methoxy-4-nitrophenolate] | –
58.4% | COc1nc(Oc2cccc(/C=C(\C#N)c3nn(CCO)c(N)c3C#N)c2)nc(N2CCCCC2)n1 [BAS00896568, 5-amino-3-[(Z)-1-cyano-2-[3-[(4-methoxy-6-piperidin-1-yl-1,3,5-triazin-2-yl)oxy]phenyl]ethenyl]-1-(2-hydroxyethyl)pyrazole-4-carbonitrile] | –
– | O=c1c(-c2ccc(O)cc2)coc2cc(O)cc(O)c12 [Genistein] | inhibition to % activity compared to the assay without additional active compound (purified MKK4 protein; positive control, remaining activity): approx. 80%; liver regeneration (MKK4 in the liver): significant increase in liver regeneration; proliferation (MKK4 in the liver): increase in proliferation; protection against induced apoptosis (MKK4 in the liver): protection against induced apoptosis
– | COc1cccc(-c2cc(=O)c3ccccc3o2)c1N [PD98059] | liver regeneration (MKK4 in the liver): significant increase in liver regeneration; proliferation (MKK4 in the liver): increase in proliferation; protection against induced apoptosis (MKK4 in the liver): protection against induced apoptosis
47.8% | Cc1n[nH]c(C)c1CCc1cc(O)n2ncc(C(=O)Nc3ccccc3)c2n1 [SYN22174524, 5-[2-(3,5-dimethyl-1H-pyrazol-4-yl)ethyl]-7-oxo-N-phenyl-1H-pyrazolo[1,5-a]pyrimidine-3-carboxamide] | –
41.5% | Cc1n[nH]c(C)c1CCc1cc(=O)n2ncc(-c3ccc(F)cc3)c2[nH]1 [SYN22174787, 5-[2-(3,5-dimethyl-1H-pyrazol-4-yl)ethyl]-3-(4-fluorophenyl)-1H-pyrazolo[1,5-a]pyrimidin-7-one] | –
55.5% | Cc1ccc(-c2cnn3c(=O)cc(CCc4c(C)n[nH]c4C)[nH]c23)cc1 [SYN22175977, 5-[2-(3,5-dimethyl-1H-pyrazol-4-yl)ethyl]-3-(4-methylphenyl)-1H-pyrazolo[1,5-a]pyrimidin-7-one] | –
59.1% | COCc1nn2c(=O)cc(CCc3c(C)n[nH]c3C)[nH]c2c1-c1ccc(Cl)cc1 [SYN22176267, 3-(4-chlorophenyl)-5-[2-(3,5-dimethyl-1H-pyrazol-4-yl)ethyl]-2-(methoxymethyl)-1H-pyrazolo[1,5-a]pyrimidin-7-one] | –
49.9% | COCc1nn2c(=O)cc(CCc3c(C)n[nH]c3C)[nH]c2c1-c1ccc(C)cc1 [SYN22176367, 5-[2-(3,5-dimethyl-1H-pyrazol-4-yl)ethyl]-2-(methoxymethyl)-3-(4-methylphenyl)-1H-pyrazolo[1,5-a]pyrimidin-7-one] | –
54.9% | COc1cccc(-c2nn3c(=O)cc(CCc4c(C)n[nH]c4C)[nH]c3c2C)c1 [SYN22176842, 5-[2-(3,5-dimethyl-1H-pyrazol-4-yl)ethyl]-2-(3-methoxyphenyl)-3-methyl-pyrazolo[5,1-b]pyrimidin-7-ol] | –
58.2% | COc1ccccc1-c1nn2c(=O)cc(CCc3c(C)n[nH]c3C)[nH]c2c1C [SYN22176990, 5-[2-(3,5-dimethyl-1H-pyrazol-4-yl)ethyl]-2-(2-methoxyphenyl)-3-methyl-pyrazolo[5,1-b]pyrimidin-7-ol] | –
56.3% | Cc1n[nH]c(C)c1CCc1cc(=O)n2nc(C)c(-c3ccc(Cl)cc3)c2[nH]1 [SYN22177890, 3-(4-chlorophenyl)-5-[2-(3,5-dimethyl-1H-pyrazol-4-yl)ethyl]-2-methyl-1H-pyrazolo[1,5-a]pyrimidin-7-one] | –
54.2% | Cc1ccc(NC(=O)c2cccc(N(C)C)c2)cc1NC(=O)c1ccc(O)cc1 [ZM 336372, 3-(Dimethylamino)-N-[3-[(4-hydroxybenzoyl)-amino]-4-methylphenyl]benzamide, reference compound] | –
– | O=c1c(O)c(-c2cc(O)c(O)c(O)c2)oc2cc(O)cc(O)c12 [myricitine] | liver regeneration (MKK4 in the liver): significant increase in liver regeneration; proliferation (MKK4 in the liver): increase in proliferation; protection against induced apoptosis (MKK4 in the liver): protection against induced apoptosis
